Measurements published in article PMC11982498 (Redox Biology, 2025).

Legend:
BCL-2 G4 = assay: ESI-MS with BCL-2 G4; type: binding; conditions: pH 7.4
Procedure: The oligomer for BCL-2 promoter […] at concentration of 5 μM was annealed in 1 × BPES buffer with or without 20 μM B14 at 95 °C for 5 min, followed by cooling to room temperature. Mass spectrometry signals were collected by using ESI-MS (Thermo, LCQ DECA Plus XP) and analyzed by using pro-mass.
Figure S5. ESI-MS, UV, CD, and EMSA experiments were performed to examine the effect of B14 on BCL-2 promoter i-motif and G-quadruplex. (A) ESI-MS experiment for oligomer BCL-2 G4 alone, which was annealed in 1 × BPES buffer at pH 7.4. (B) ESI-MS experiment for above oligomer BCL-2 G4 with addition of B14 in 1 × BPES buffer at pH 7.4. (C-D) TO displacement with increasing amount of oligomer BCL-2 i-motif annealed in 1 X BPES buffer at pH 5.5 in the presence of 20 equivalents of B14 or A22. (E) EMSA experiment was performed for the effect of B14 on inducing BCL-2 i-motif formation. The lanes from left to right were as follow: BCL-2 i-motif alone at pH 5.5; BCL-2 i-motif alone at pH 6.2; BCL-2 i-motif plus 1 eq B14 at pH 6.2; BCL-2 i-motif plus 5 eq B14 at pH 6.2; BCL-2 i-motif plus 10 eq B14 at pH 6.2. (F) CD experiment was performed to study the interaction of B14 or A22 with BCL-2 promoter i-motif.

[1] = tested on: BAX gene transcription in SH-SY5Y cells; assay: Real-time RT-PCR in 25 μM Aβ1-42 cell model, BAX; type: cell-based, human
Procedure: SH-SY5Y cells were treated with or without B14, and total RNA was subsequently isolated and purified. Reverse transcription was performed using a cDNA synthesis kit. The relative transcription levels of the genes were evaluated through quantitative real-time PCR using the SYBR Green-based method, as described in the Supplementary Date. Details regarding the primer sequences and the raw data can be found in Table S7 and Table S8.
^a -∆∆Ct = -[(Ct value of genes in treated sample - Ct value of genes in control) - (Ct value of β-actin in treated sample - Ct value of β-actin in control)]. ^b F: The relative expression fold.
Experiment 2: The Ct values of BCL-2 and Bax in 25 μM Aβ1-42 model with different concentration of B14.
Total RNA was extracted from cells and mice liver tissue using RNAiso Plus (Takara, 9109, Japan). Following sample homogenization, chloroform was added, and the solution was allowed to have phase separation into an upper aqueous layer (containing RNA), an interphase, and a lower organic layer (containing DNA and proteins). RNA was precipitated from the aqueous phase using isopropanol, while DNA was precipitated from the aqueous-organic interphase using ethanol. Complementary DNA (cDNA) was synthesized using the One-Step RT-PCR Kit (Takara, Cat#639503, Japan).
Quantitative real-time polymerase chain reaction (qRT-PCR) was performed using the 2× RealStar SYBR Mixture (GenStar, Cat# A301-10, Guangzhou, China) on a LightCycler 480 II real-time PCR system (Roche, USA). Data were analyzed using the 2^−ΔΔCt method. Actin served as the internal control, and relative mRNA levels were normalized accordingly.

[2] = tested on: BCL-2 promoter G-quadruplex; assay: CD melting experiment, BCL-2 G-quadruplex; type: binding; conditions: Tris-HCl buffer pH 7.4; 20 equivalents (20 μM) compound
Procedure: CD-melting experiment was carried out following a published method without significant modification. BCL-2 promoter i-motif and G-quadruplex structures at a concentration of 5 μM were annealed in buffer at 95 °C for 10 min, and then cooled to room temperature. The annealed samples were incubated with B14 for 6 h, and then molar ellipticity at 287 nm for i-motif structure or 260 nm for G-quadruplex structure, where the CD value was the highest in our experiment, was measured over a temperature range of 20–90 °C at a heating rate of 0.5 °C/min. Tm values were determined and calculated through nonlinear regression curve fitting with software GraphPad Prism 9.0. (GraphPad Software Inc., California, USA).
Figure S6. CD melting experiments were performed to examine the effects of B14 and A22 on BCL-2 promoter i-motif and G-quadruplex. (A-H) CD melting experiments were performed for BCL-2 promoter i-motif or G-quadruplex in the absence or presence of B14 (2, 5, 20 equivalents) and A22 (20 equivalents). The oligonucleotide for BCL-2 i-motif was annealed in 1 X BPES buffer at pH 5.5, while the oligonucleotide for BCL-2 G-quadruplex was annealed in 20 mM Tris-HCl buffer with 20 mM NaCl at pH 7.4. The ΔTm values for the effects of B14 and A22 on BCL-2 promoter i-motif were determined to be 11.26 °C and 11.82 °C, respectively. […]

## O=C(CCN1CCOCC1)Nc1ccc2c(c1)c(=O)c1cc(NC(=O)CCN3CCOCC3)ccc1n2-c1ccc2occc2c1 [Compound B14]
BCL-2 G4
  adduct peak in ESI-MS: no corresponding binding peak appeared
[1]; 25 μM Aβ1-42 + 6.25 μM B14
  -∆∆Ct, BAX: -1.71
  F = 2^-∆∆Ct (relative expression fold), BAX: 3.23
[1]; 25 μM Aβ1-42 + 12.5 μM B14
  -∆∆Ct, BAX: -1.09
  F = 2^-∆∆Ct (relative expression fold), BAX: 2.13
[1]; 25 μM Aβ1-42 + 25 μM B14
  -∆∆Ct, BAX: -0.80
  F = 2^-∆∆Ct (relative expression fold), BAX: 1.71
[2]
  ΔTm (CD melting): −3.13 °C
